According to ChEMBL document CHEMBL1137452, “Synthesis of disulfide esters of dialkylaminocarbothioic acid as potent, non-detergent spermicidal agents” (Bioorg Med Chem, 2007):
In brackets after ≈: the same amount, converted by molar mass. Activity calls are given as the source filed them. The calls are words filed in the database; no cut-off is given here.

How the values were obtained:
[1] = organism: Homo sapiens; experiment: Spermicidal activity against human spermatozoa; type: functional
[2] = system: Candida albicans; experiment: Antifungal activity against Candida albicans after 48 hrs by broth micro dilution technique; type: functional, organism-based
[3] = system: Candida albicans; experiment: Antifungal activity against Candida albicans MTCC 183 after 48 hrs by broth micro dilution technique; type: functional, organism-based; settings: MTCC 183, 48 h
[4] = system: Candida albicans; experiment: Antifungal activity against Candida albicans MTCC 1346 after 48 hrs by broth micro dilution technique; type: functional, organism-based; settings: MTCC 1346, 48 h
[5] = system: Candida albicans; experiment: Antifungal activity against Candida albicans ATCC 10231 after 48 hrs by broth micro dilution technique; type: functional, organism-based; settings: ATCC 10231, 48 h
[6] = system: Pichia kudriavzevii; experiment: Antifungal activity against Candida krusei ATCC 6258 after 48 hrs by broth micro dilution technique; type: functional, organism-based; settings: ATCC 6258, 48 h
[7] = system: Candida parapsilosis; experiment: Antifungal activity against Candida parapsilosis ATCC 22019 after 48 hrs by broth micro dilution technique; type: functional, organism-based; settings: Lodderomyces parapsilosis, ATCC 22019, 48 h
[8] = system: Candida albicans; experiment: Antifungal activity against Candida albicans ATCC 10453 after 48 hrs by broth micro dilution technique; type: functional, organism-based; settings: ATCC 10453, 48 h
[9] = system: Candida albicans; experiment: Antifungal activity against Candida albicans ATCC 60193 after 48 hrs by broth micro dilution technique; type: functional, organism-based; settings: ATCC 60193, 48 h
[10] = system: Candida albicans; experiment: Antifungal activity against Candida albicans ATCC 66027 after 48 hrs by broth micro dilution technique; type: functional, organism-based; settings: ATCC 66027, 48 h
[11] = organism: Homo sapiens; experiment: Spermicidal activity against human spermatozoa at 1.0% w/v; type: functional

Compound | MEC [1] | IC50 [2] | MIC [2] | IC50 [3] | MIC [3] | IC50 [4] | MIC [4] | IC50 [5] | MIC [5] | IC50 [6] | MIC [6] | IC50 [7] | MIC [7] | IC50 [8] | MIC [8] | IC50 [9] | MIC [9] | IC50 [10] | MIC [10] | Activity [11]
CN1CCN(CC(CSC(=O)N2CCCCC2)SSC(CSC(=O)N2CCCCC2)CN2CCN(C)CC2)CC1 (racemic) | 0.05 %w/v | 47 µg/mL (≈ 74.2 µM) | 50 µg/mL (≈ 79 µM) | > 50 µg/mL | 50 µg/mL (≈ 79 µM) | > 50 µg/mL | 50 µg/mL (≈ 79 µM) | > 50 µg/mL | 50 µg/mL (≈ 79 µM) | 35 µg/mL (≈ 55.3 µM) | 50 µg/mL (≈ 79 µM) | 40 µg/mL (≈ 63.2 µM) | 50 µg/mL (≈ 79 µM) | 46 µg/mL (≈ 72.7 µM) | > 50 µg/mL | 43 µg/mL (≈ 67.9 µM) | > 50 µg/mL | 40 µg/mL (≈ 63.2 µM) | > 50 µg/mL | –
O=C(SCC(CN1CCOCC1)SSC(CSC(=O)N1CCCC1)CN1CCOCC1)N1CCCC1 (racemic) | – | – | – | – | – | – | – | – | – | – | – | – | – | – | – | – | – | – | – | inactive
CCCCCCCCCc1ccc(OCCOCCOCCOCCOCCOCCOCCOCCOCCO)cc1 [NONOXYNOL 9] | 0.05 %w/v | 46 µg/mL (≈ 74.6 µM) | > 50 µg/mL | 41 µg/mL (≈ 66.5 µM) | > 50 µg/mL | > 50 µg/mL | > 50 µg/mL | > 50 µg/mL | > 50 µg/mL | 48 µg/mL (≈ 77.8 µM) | 50 µg/mL (≈ 81.1 µM) | 47 µg/mL (≈ 76.2 µM) | 50 µg/mL (≈ 81.1 µM) | > 50 µg/mL | > 50 µg/mL | > 50 µg/mL | > 50 µg/mL | > 50 µg/mL | > 50 µg/mL | –
O=C(SCC(CN1CCCC1)SSC(CSC(=O)N1CCCC1)CN1CCCC1)N1CCCC1 (racemic) | 0.002 %w/v | 43 µg/mL (≈ 78.6 µM) | > 50 µg/mL | 29 µg/mL (≈ 53 µM) | 50 µg/mL (≈ 91.4 µM) | > 50 µg/mL | > 50 µg/mL | > 50 µg/mL | > 50 µg/mL | 33 µg/mL (≈ 60.3 µM) | 50 µg/mL (≈ 91.4 µM) | 31 µg/mL (≈ 56.7 µM) | 50 µg/mL (≈ 91.4 µM) | > 50 µg/mL | > 50 µg/mL | > 50 µg/mL | > 50 µg/mL | 42 µg/mL (≈ 76.8 µM) | > 50 µg/mL | –
CCN(CC)C(=O)SCC(CN1CCCCC1)SSC(CSC(=O)N(CC)CC)CN1CCCCC1 (racemic; 26) | – | – | – | – | – | – | – | – | – | – | – | – | – | – | – | – | – | – | – | inactive
O=C(SCC(CN1C=CC=CC=C1)SSC(CSC(=O)N1CCOCC1)CN1C=CC=CC=C1)N1CCOCC1 (racemic) | 0.05 %w/v | > 50 µg/mL | > 50 µg/mL | 25 µg/mL (≈ 40.1 µM) | 50 µg/mL (≈ 80.3 µM) | 35 µg/mL (≈ 56.2 µM) | 50 µg/mL (≈ 80.3 µM) | > 50 µg/mL | > 50 µg/mL | 32 µg/mL (≈ 51.4 µM) | 50 µg/mL (≈ 80.3 µM) | 39 µg/mL (≈ 62.6 µM) | 50 µg/mL (≈ 80.3 µM) | > 50 µg/mL | > 50 µg/mL | 42 µg/mL (≈ 67.4 µM) | 50 µg/mL (≈ 80.3 µM) | > 50 µg/mL | > 50 µg/mL | –
O=C(SCC(CN1CCOCC1)SSC(CSC(=O)N1CCCCC1)CN1CCOCC1)N1CCCCC1 (racemic) | 0.1 %w/v | – | – | – | – | – | – | – | – | – | – | – | – | – | – | – | – | – | – | –
O=C(SCC(CN1CCCCC1)SSC(CSC(=O)N1CCOCC1)CN1CCCCC1)N1CCOCC1 (racemic) | 0.5 %w/v | – | – | – | – | – | – | – | – | – | – | – | – | – | – | – | – | – | – | –
CCN(C)C(=O)SCC(CN1CCCCC1)SSC(CSC(=O)N(C)CC)CN1CCCCC1 (racemic) | – | – | – | – | – | – | – | – | – | – | – | – | – | – | – | – | – | – | – | inactive
O=C(SCC(CN1C=CC=CC=C1)SSC(CSC(=O)N1CCCC1)CN1C=CC=CC=C1)N1CCCC1 (racemic) | 0.05 %w/v | 50 µg/mL (≈ 84.6 µM) | > 50 µg/mL | 26 µg/mL (≈ 44 µM) | 50 µg/mL (≈ 84.6 µM) | 50 µg/mL (≈ 84.6 µM) | 50 µg/mL (≈ 84.6 µM) | > 50 µg/mL | > 50 µg/mL | 32 µg/mL (≈ 54.2 µM) | 50 µg/mL (≈ 84.6 µM) | 42 µg/mL (≈ 71.1 µM) | 50 µg/mL (≈ 84.6 µM) | > 50 µg/mL | > 50 µg/mL | 42 µg/mL (≈ 71.1 µM) | 50 µg/mL (≈ 84.6 µM) | > 50 µg/mL | > 50 µg/mL | –
CCN(CC)C(=O)SCC(CN1CCOCC1)SSC(CSC(=O)N(CC)CC)CN1CCOCC1 (configuration not stated) | – | – | – | – | – | – | – | – | – | – | – | – | – | – | – | – | – | – | – | inactive
OC(Cn1cncn1)(Cn1cncn1)c1ccc(F)cc1F [FLUCONAZOLE] | 0.1 %w/v | 0.13 µg/mL (≈ 0.424 µM) | 0.5 µg/mL (≈ 1.63 µM) | 0.26 µg/mL (≈ 0.849 µM) | 0.5 µg/mL (≈ 1.63 µM) | 0.58 µg/mL (≈ 1.89 µM) | 2 µg/mL (≈ 6.53 µM) | 0.35 µg/mL (≈ 1.14 µM) | 1 µg/mL (≈ 3.27 µM) | 1.38 µg/mL (≈ 4.51 µM) | 4 µg/mL (≈ 13.1 µM) | 0.21 µg/mL (≈ 0.686 µM) | 1 µg/mL (≈ 3.27 µM) | 0.63 µg/mL (≈ 2.06 µM) | 1 µg/mL (≈ 3.27 µM) | 0.1 µg/mL (≈ 0.327 µM) | 0.25 µg/mL (≈ 0.816 µM) | 0.18 µg/mL (≈ 0.588 µM) | 0.25 µg/mL (≈ 0.816 µM) | –
O=C(SCC(CN1CCCCC1)SSC(CSC(=O)N1CCCCC1)CN1CCCCC1)N1CCCCC1 (racemic) | 0.05 %w/v | > 50 µg/mL | > 50 µg/mL | > 50 µg/mL | > 50 µg/mL | > 50 µg/mL | > 50 µg/mL | > 50 µg/mL | > 50 µg/mL | > 50 µg/mL | > 50 µg/mL | > 50 µg/mL | > 50 µg/mL | > 50 µg/mL | > 50 µg/mL | > 50 µg/mL | > 50 µg/mL | > 50 µg/mL | > 50 µg/mL | –
O=C(SCC(CN1CCOCC1)SSC(CSC(=O)N1CCOCC1)CN1CCOCC1)N1CCOCC1 (racemic) | – | – | – | – | – | – | – | – | – | – | – | – | – | – | – | – | – | – | – | inactive
CN1CCN(CC(CSC(=O)N2CCCC2)SSC(CSC(=O)N2CCCC2)CN2CCN(C)CC2)CC1 (racemic) | 1 %w/v | – | – | – | – | – | – | – | – | – | – | – | – | – | – | – | – | – | – | –
CCN(C)C(=O)SCC(CN1CCN(C)CC1)SSC(CSC(=O)N(C)CC)CN1CCN(C)CC1 (racemic) | – | – | – | – | – | – | – | – | – | – | – | – | – | – | – | – | – | – | – | inactive
O=C(SCC(CN1CCCCC1)SSC(CSC(=O)N1CCCC1)CN1CCCCC1)N1CCCC1 (racemic) | 0.05 %w/v | > 50 µg/mL | > 50 µg/mL | 42 µg/mL (≈ 73.1 µM) | > 50 µg/mL | > 50 µg/mL | > 50 µg/mL | > 50 µg/mL | > 50 µg/mL | 49 µg/mL (≈ 85.2 µM) | 50 µg/mL (≈ 87 µM) | 48 µg/mL (≈ 83.5 µM) | 50 µg/mL (≈ 87 µM) | > 50 µg/mL | > 50 µg/mL | > 50 µg/mL | > 50 µg/mL | > 50 µg/mL | > 50 µg/mL | –
CCN(CC)C(=O)SCC(CN1CCCCC1)SSC(CSC(=O)N(CC)CC)CN1CCCCC1 (racemic; 29) | – | – | – | – | – | – | – | – | – | – | – | – | – | – | – | – | – | – | – | inactive
O=C(SCC(CN1CCCC1)SSC(CSC(=O)N1CCOCC1)CN1CCCC1)N1CCOCC1 (racemic) | 0.1 %w/v | – | – | – | – | – | – | – | – | – | – | – | – | – | – | – | – | – | – | –
O=C(SCC(CN1CCCC1)SSC(CSC(=O)N1CCCCC1)CN1CCCC1)N1CCCCC1 (racemic) | 0.002 %w/v | 47 µg/mL (≈ 81.7 µM) | > 50 µg/mL | 32 µg/mL (≈ 55.7 µM) | 50 µg/mL (≈ 87 µM) | 48 µg/mL (≈ 83.5 µM) | 50 µg/mL (≈ 87 µM) | 48 µg/mL (≈ 83.5 µM) | 50 µg/mL (≈ 87 µM) | 30 µg/mL (≈ 52.2 µM) | 50 µg/mL (≈ 87 µM) | 48 µg/mL (≈ 83.5 µM) | 50 µg/mL (≈ 87 µM) | > 50 µg/mL | > 50 µg/mL | 41 µg/mL (≈ 71.3 µM) | > 50 µg/mL | 43 µg/mL (≈ 74.8 µM) | > 50 µg/mL | –
